The results in this text go back to patent US20240327417A1, “HETEROCYCLIC COMPOUNDS” (BeiGene Switzerland GmbH, priority 2021, published 2024).

Assay [1] has as its target T1, Full length DGKζ (in-house protein M1-V929) (Homo sapiens, UniProt Q13574).
T1 construct: His (N); TEV cleavage site (N); made in house; host or cells: Sf9 insect cells (baculovirus, Bac-to-Bac)
Kind of assay: Biochemical DGK IC50 assay (ADP-Glo, lipid micelle substrate), DGKζ. The conditions noted are these: 0.5 nM enzyme, 140 μM ATP, 80 μM DAG, 1 hour preincubation, 1 hour reaction, room temperature, read-out: IC50s for DGKζ. The procedure, abridged:
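In-house full-length human DGKζ, baculovirus-expressed in Sf9 cells, was assayed with a DAG/PS lipid micelle substrate at room temperature. Buffer was 50 mM HEPES, 10 mM MgCl2, 0.01% BSA, 0.1 mM Na3VO4, 0.005% Tween-20, 0.01 mM CaCl2, with final compound 1.55˜10000 nM or 23.3˜150000 nM.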

Assay [2] deals with T2, Full length DGKα (D21-10BG, SignalChem) (Homo sapiens, UniProt P23743).
T2 construct: Full length DGKα (D21-10BG, SignalChem); purchased SignalChem D21-10BG
T2 sequence (P23743 whole entry): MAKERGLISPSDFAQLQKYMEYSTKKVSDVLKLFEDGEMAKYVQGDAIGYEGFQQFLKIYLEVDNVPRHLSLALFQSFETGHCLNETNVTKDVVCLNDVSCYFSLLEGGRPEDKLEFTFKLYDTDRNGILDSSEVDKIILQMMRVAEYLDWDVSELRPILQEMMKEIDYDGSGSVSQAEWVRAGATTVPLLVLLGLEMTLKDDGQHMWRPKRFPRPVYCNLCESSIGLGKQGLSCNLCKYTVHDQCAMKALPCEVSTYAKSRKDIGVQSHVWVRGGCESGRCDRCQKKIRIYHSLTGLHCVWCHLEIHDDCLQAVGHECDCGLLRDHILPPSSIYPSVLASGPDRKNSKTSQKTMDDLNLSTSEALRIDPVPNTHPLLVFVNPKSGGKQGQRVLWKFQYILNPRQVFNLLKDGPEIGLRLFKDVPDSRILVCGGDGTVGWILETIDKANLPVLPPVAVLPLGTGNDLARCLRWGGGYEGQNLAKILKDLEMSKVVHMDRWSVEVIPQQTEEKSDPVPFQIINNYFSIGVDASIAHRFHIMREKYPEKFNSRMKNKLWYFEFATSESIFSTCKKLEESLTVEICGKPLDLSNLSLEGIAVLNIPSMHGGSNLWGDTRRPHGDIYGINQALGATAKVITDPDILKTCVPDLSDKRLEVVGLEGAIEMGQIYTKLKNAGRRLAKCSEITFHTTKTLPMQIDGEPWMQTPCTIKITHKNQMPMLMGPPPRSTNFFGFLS
Briefly: Biochemical DGK IC50 assay (ADP-Glo, lipid micelle substrate), DGKα. The conditions noted are these: 7.5 nM enzyme, 140 μM ATP, 80 μM DAG, 1 hour preincubation, 1 hour reaction, room temperature, read-out: IC50s for DGKα. Put shortly: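 Full-length enzyme was assayed by ADP-Glo on DAG/PS lipid micelles at room temperature in HEPES/MgCl2/CaCl2 buffer with BSA, Na3VO4 and Tween-20, using a 1 h reaction and luminescence read-out.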
(In general: ADP-Glo turns the ADP formed in a reaction into a luminescent signal.)

The structures appear in SMILES notation. Where only a bound is given, the exact number is not on record here.

T1 sequence (Q13574 1-929 isoform Q13574-4): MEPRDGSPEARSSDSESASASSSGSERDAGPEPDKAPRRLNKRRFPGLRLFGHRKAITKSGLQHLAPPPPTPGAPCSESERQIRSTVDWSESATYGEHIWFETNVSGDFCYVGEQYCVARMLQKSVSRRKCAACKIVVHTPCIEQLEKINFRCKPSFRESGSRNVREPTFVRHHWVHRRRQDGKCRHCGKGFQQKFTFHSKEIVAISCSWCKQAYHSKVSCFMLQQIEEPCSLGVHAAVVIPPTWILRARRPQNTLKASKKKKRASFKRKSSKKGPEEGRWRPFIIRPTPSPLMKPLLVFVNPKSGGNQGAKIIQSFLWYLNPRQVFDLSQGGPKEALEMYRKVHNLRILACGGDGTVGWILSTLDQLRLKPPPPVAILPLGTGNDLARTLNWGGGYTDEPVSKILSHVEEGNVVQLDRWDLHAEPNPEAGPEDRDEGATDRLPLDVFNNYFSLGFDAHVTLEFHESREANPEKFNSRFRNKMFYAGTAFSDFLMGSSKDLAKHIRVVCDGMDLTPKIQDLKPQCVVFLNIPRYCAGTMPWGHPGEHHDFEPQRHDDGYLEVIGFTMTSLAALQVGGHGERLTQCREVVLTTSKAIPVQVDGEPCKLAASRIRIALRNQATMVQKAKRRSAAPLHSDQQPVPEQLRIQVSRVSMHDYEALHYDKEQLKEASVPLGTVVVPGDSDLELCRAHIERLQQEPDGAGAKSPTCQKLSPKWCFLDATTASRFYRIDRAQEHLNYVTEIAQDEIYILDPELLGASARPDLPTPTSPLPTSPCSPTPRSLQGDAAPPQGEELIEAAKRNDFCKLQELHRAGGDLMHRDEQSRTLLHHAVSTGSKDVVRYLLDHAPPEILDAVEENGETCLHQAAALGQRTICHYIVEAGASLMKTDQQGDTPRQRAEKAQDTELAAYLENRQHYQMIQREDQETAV

As to `CC[C@H]1CN(C(CCOC)c2ccc3nc(C)sc3c2)[C@H](C)CN1c1cc(=O)n(C)n2cc(CC#N)nc12` (stereo partly drawn) [Compound A103, 2-(8-((2S,5R)-2-ethyl-4-(3-methoxy-1-(2-methylbenzo[d]thiazol-6-yl)propyl)-5-methylpiperazin-1-yl)-5-methyl-6-oxo-5,6-dihydroimidazo[1,2-b]pyridazin-2-yl)acetonitrile], the IC50 in assay [1] is 138 nM; in assay [2] it was 701 nM.
Consider `CC[C@H]1CN(C(C)c2ccc3nc(C)sc3n2)[C@H](CC)CN1c1c(C#N)c(=O)n(C)n2cc(CC#N)nc12` (single isomer, unassigned) [Compound A112a], for which the IC50 in assay [1] was found to be 3500 nM; in assay [2], 752 nM.
Turning to `CC[C@H]1CN(C(C)c2ccc3nccnc3c2)[C@H](CC)CN1c1cc(=O)n(C)n2cc(CC#N)nc12` (single isomer, unassigned) [Compound A14a], the IC50 in assay [1] came out at 6 nM; in assay [2], 217 nM.
Regarding `CC[C@H]1CN(C(C)c2ccncc2)[C@H](CC)CN1c1cc(=O)n(C)n2cc(CC#N)nc12` (stereo partly drawn) [Compound A35, 2-(8-((2S,5R)-2,5-diethyl-4-(1-(pyridin-4-yl)ethyl)piperazin-1-yl)-5-methyl-6-oxo-5,6-dihydroimidazo[1,2-b]pyridazin-2-yl)acetonitrile], the IC50 in assay [1] came to 3120 nM; in assay [2], 42 nM.
For `CC(c1ccc2nccnc2c1)N1C[C@H](C)N(c2cc(=O)n(C)n3cc(C[S+](C)[O-])nc23)C[C@H]1C` (stereo partly drawn) [Compound A10, 8-((2S,5R)-2,5-dimethyl-4-(1-(quinoxalin-6-yl)ethyl)piperazin-1-yl)-5-methyl-2-((methylsulfinyl)methyl)imidazo[1,2-b]pyridazin-6(5H)-one] the same measures were more than 10000 nM and more than 10000 nM.
For `CC[C@H]1CN(C(C)c2ccc(F)cc2C(F)F)[C@H](CC)CN1c1cc(=O)n(C)n2cc(CC#N)nc12` (stereo partly drawn) [Compound A34, 2-(8-((2S,5R)-4-(1-(2-(difluoromethyl)-4-fluorophenyl)ethyl)-2,5-diethylpiperazin-1-yl)-5-methyl-6-oxo-5,6-dihydroimidazo[1,2-b]pyridazin-2-yl)acetonitrile] the same measures were 14 nM and 3510 nM.
`COCc1cn2c(n1)c(N1C[C@@H](C)N(C(C)c3ccc4nccnc4c3)C[C@@H]1C)cc(=O)n2C` (stereo partly drawn) [Compound A4, 8-((2S,5R)-2,5-dimethyl-4-(1-(quinoxalin-6-yl)ethyl)piperazin-1-yl)-2-(methoxymethyl)-5-methylimidazo[1,2-b]pyridazin-6(5H)-one]: the IC50 in assay [1] came out at 480 nM; in assay [2], 4000 nM.
On to `CC[C@H]1CN(C(C)c2cc3scnc3cc2F)[C@H](CC)CN1c1cc(=O)n(C)n2cc(CC#N)nc12` (single isomer, unassigned) [Compound A59b], for which the IC50 in assay [1] came out at 2610 nM; in assay [2], 1580 nM.
For the molecule `CC[C@H]1CN(C(C)c2ccc3nc(C)sc3n2)[C@H](CC)CN1c1cc(=O)n(C)n2cc(C=NOC)nc12` (single isomer, unassigned) [Compound A124a], the IC50 is more than 10000 nM in assay [1] and 2000 nM in assay [2].
In the case of `CC[C@H]1CN(C(C)c2ccc(C(C)C)nc2)[C@H](CC)CN1c1cc(=O)n(C)n2cc(CC#N)nc12` (single isomer, unassigned) [Compound A38b], the values for the IC50 in assay [1] and in assay [2] were 475 nM and 423 nM, respectively.
For `CC[C@H]1CN(C(CCOC)c2ccc3nc(C)sc3c2)[C@H](CC)CN1c1cc(=O)n(C)n2cc(CC#N)nc12` (single isomer, unassigned) [Compound A102b] the same measures were 623 nM and 735 nM.
For the molecule `CC(c1ccc2c(c1)OC(C)(C)CO2)N1C[C@H](C)N(c2c(F)c(=O)n(C)n3cc(CC#N)nc23)C[C@H]1C` (single isomer, unassigned) [Compound A26a], the figures for the IC50 in assay [1] and in assay [2] were 19 nM and 2890 nM, respectively.
